According to ChEMBL document CHEMBL1201862, “PubChem BioAssay data set” (2004):
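Growth conditions: 96-well plates. Treatment: test compound, 48 hours, 5 concentrations. Analysis: linear interpolation between bracketing concentrations; unreached endpoints set to highest concentration. Here, GI50 denotes the concentration required for 50% inhibition of growth.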 Activity calls are given as the source filed them. Rule as the data show it: active = GI50 up to about 1.1 µM and inactive = higher.

How the values were obtained:
Assay in all cases: growth of human tumour cells (NCI), 48 h
CCRF-CEM = tested on: CCRF-CEM
MCF7 = tested on: MCF7
HOP-92 = tested on: HOP-92
RXF 393 = tested on: RXF 393
HT-29 = tested on: HT-29
HL-60 = tested on: HL-60
DMS-273 = tested on: DMS-273
OVCAR-5 = tested on: OVCAR-5
UACC-62 = tested on: UACC-62
NCI-H23 = tested on: NCI-H23
SK-OV-3 = tested on: SK-OV-3
SK-MEL-2 = tested on: SK-MEL-2
SNB-75 = tested on: SNB-75
SF-295 = tested on: SF-295
NCI/ADR-RES = tested on: NCI/ADR-RES
OVCAR-3 = tested on: OVCAR-3
HCT-15 = tested on: HCT-15
COLO 205 = tested on: COLO 205
EKVX = tested on: EKVX
HCT-116 = tested on: HCT-116
HOP-62 = tested on: HOP-62
UACC-257 = tested on: UACC-257
M19-MEL = tested on: M19-MEL
SK-MEL-5 = tested on: SK-MEL-5
UO-31 = tested on: UO-31
A549 = tested on: A549
MOLT-4 = tested on: MOLT-4
U-251 = tested on: U-251
OVCAR-8 = tested on: OVCAR-8
HCC 2998 = tested on: HCC 2998
OVCAR-4 = tested on: OVCAR-4
SF-539 = tested on: SF-539
KM-20L2 = tested on: KM-20L2
NCI-H226 = tested on: NCI-H226
NCI-H460 = tested on: NCI-H460
NCI-H522 = tested on: NCI-H522
Malme-3M = tested on: Malme-3M
LOX IMVI = tested on: LOX IMVI
SW-620 = tested on: SW-620
KM12 = tested on: KM12
A498 = tested on: A498
DMS-114 = tested on: DMS-114
SK-MEL-28 = tested on: SK-MEL-28
SNB-19 = tested on: SNB-19
DLD-1 = tested on: DLD-1
IGROV-1 = tested on: IGROV-1
SNB-78 = tested on: SNB-78
CAKI-1 = tested on: CAKI-1
SN12C = tested on: SN12C
HOP-18 = tested on: HOP-18
RPMI-8226 = tested on: RPMI-8226
K562 = tested on: K562
SF-268 = tested on: SF-268
XF498 = tested on: XF498

CN(C)CCNC(=O)c1cccc2[nH]c(-c3ccccn3)nc12
GI50 (CCRF-CEM): 23.5 µM (inactive) | GI50 (MCF7): 31.5 µM (inactive) | GI50 (HOP-92): 19.6 µM (inactive) | GI50 (RXF 393): 51.2 µM (inactive) | GI50 (HT-29): 19.6 µM (inactive) | GI50 (HL-60): 33.7 µM (inactive) | GI50 (DMS-273): 26 µM (inactive) | GI50 (OVCAR-5): 38.2 µM (inactive) | GI50 (UACC-62): 20.2 µM (inactive) | GI50 (NCI-H23): 43.7 µM (inactive) | GI50 (SK-OV-3): 32.6 µM (inactive) | GI50 (SK-MEL-2): 39.7 µM (inactive) | GI50 (SNB-75): 21.2 µM (inactive) | GI50 (SF-295): 31 µM (inactive) | GI50 (NCI/ADR-RES): 26.1 µM (inactive) | GI50 (OVCAR-3): 30.7 µM (inactive) | GI50 (HCT-15): 37.2 µM | GI50 (COLO 205): 14 µM (inactive) | GI50 (EKVX): 41.4 µM (inactive) | GI50 (HCT-116): 19.4 µM (inactive) | GI50 (HOP-62): 35.3 µM (inactive) | GI50 (UACC-257): 28.6 µM (inactive) | GI50 (M19-MEL): 29.7 µM (inactive) | GI50 (SK-MEL-5): 21.7 µM (inactive) | GI50 (UO-31): 16.8 µM (inactive) | GI50 (A549): 36.2 µM (inactive) | GI50 (MOLT-4): 20.7 µM (inactive) | GI50 (U-251): 38.8 µM (inactive) | GI50 (OVCAR-8): 27.9 µM (inactive) | GI50 (HCC 2998): 49 µM (inactive) | GI50 (OVCAR-4): 27.5 µM (inactive) | GI50 (SF-539): 43.5 µM (inactive) | GI50 (KM-20L2): 25.6 µM (inactive) | GI50 (NCI-H226): 18.5 µM (inactive) | GI50 (NCI-H460): 20.8 µM (inactive) | GI50 (NCI-H522): 25.6 µM (inactive) | GI50 (Malme-3M): 24.9 µM (inactive) | GI50 (LOX IMVI): 32.5 µM (inactive) | GI50 (SW-620): 24.9 µM (inactive) | GI50 (KM12): 41.6 µM (inactive) | GI50 (A498): 36.6 µM (inactive) | GI50 (DMS-114): 27 µM (inactive) | GI50 (SK-MEL-28): 36.6 µM (inactive) | GI50 (SNB-19): 42.2 µM (inactive) | GI50 (DLD-1): 33.7 µM (inactive) | GI50 (IGROV-1): 35.1 µM (inactive) | GI50 (SNB-78): 34.9 µM (inactive) | GI50 (CAKI-1): 21.5 µM (inactive) | GI50 (SN12C): 34.8 µM (inactive) | GI50 (HOP-18): 29 µM (inactive) | GI50 (RPMI-8226): 21.7 µM (inactive) | GI50 (K562): > 55.6 µM (inactive) | GI50 (SF-268): 28 µM (inactive) | GI50 (XF498): 36.6 µM (inactive)
